According to ChEMBL document CHEMBL1157712, “Hit to lead account of the discovery of bisbenzamide and related ureidobenzamide inhibitors of Rho kinase” (J Med Chem, 2010):
In brackets after ≈: the same amount, converted by molar mass.

Experiments:
[1] = Membrane permeability by PAMPA assay; type: ADME; conditions: read-out: permeability
[2] = Solubility at pH 7.4; type: physicochemical; conditions: buffer
[3] = target: Serine/threonine-protein kinase MRCK beta (Homo sapiens) (UniProt Q9Y5S2); test: Inhibition of CDC42BPB
Cytochrome P450 1A2 [4] = target: T1, Cytochrome P450 1A2 (Homo sapiens, UniProt P05177); test: Inhibition of human CYP1A2 by LCMS/MS assay; type: ADME
T1 sequence (P05177 whole entry): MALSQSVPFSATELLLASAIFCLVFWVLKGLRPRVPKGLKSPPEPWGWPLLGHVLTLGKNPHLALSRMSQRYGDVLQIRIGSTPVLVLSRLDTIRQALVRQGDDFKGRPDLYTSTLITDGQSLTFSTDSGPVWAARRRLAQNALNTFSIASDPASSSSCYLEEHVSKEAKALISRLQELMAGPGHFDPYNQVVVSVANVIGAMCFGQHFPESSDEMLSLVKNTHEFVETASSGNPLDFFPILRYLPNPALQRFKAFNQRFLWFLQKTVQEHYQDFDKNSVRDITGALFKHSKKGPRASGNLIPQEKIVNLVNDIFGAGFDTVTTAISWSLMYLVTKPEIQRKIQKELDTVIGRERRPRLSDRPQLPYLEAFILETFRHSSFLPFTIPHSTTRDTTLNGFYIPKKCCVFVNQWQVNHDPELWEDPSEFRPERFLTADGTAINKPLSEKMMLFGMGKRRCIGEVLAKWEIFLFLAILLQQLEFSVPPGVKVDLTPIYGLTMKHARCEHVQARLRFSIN

[5] = target: Serine/threonine-protein kinase N2 (Homo sapiens, UniProt Q16513)
Serine/threonine-protein kinase N2, sequence (Q16513 whole entry): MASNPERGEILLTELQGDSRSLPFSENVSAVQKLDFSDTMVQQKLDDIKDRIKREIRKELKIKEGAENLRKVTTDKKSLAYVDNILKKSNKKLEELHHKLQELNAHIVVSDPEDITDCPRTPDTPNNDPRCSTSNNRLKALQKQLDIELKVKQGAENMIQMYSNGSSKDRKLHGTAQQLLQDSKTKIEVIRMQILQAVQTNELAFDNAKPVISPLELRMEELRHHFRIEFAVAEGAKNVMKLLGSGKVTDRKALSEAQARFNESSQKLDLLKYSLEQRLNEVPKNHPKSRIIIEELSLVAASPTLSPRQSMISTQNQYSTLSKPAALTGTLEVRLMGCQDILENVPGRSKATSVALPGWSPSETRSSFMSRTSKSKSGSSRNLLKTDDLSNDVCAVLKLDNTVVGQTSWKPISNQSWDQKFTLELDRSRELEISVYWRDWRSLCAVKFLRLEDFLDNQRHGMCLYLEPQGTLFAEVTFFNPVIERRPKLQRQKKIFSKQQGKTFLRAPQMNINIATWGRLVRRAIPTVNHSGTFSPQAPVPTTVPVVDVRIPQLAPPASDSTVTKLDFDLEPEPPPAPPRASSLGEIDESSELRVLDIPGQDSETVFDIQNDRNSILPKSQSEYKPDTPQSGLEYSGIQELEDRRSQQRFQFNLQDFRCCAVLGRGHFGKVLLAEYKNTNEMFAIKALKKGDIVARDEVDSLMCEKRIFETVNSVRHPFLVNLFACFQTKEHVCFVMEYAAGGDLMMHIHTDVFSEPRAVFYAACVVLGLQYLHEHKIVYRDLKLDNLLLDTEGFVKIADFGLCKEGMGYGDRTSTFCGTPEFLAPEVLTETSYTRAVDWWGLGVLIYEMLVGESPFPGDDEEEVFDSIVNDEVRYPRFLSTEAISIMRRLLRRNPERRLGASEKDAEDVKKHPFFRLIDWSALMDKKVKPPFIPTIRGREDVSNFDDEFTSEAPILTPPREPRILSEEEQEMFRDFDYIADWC

Rattus norvegicus = species on record: Rattus norvegicus; test: Induction of relaxation activity of phenylephrine-induced Sprague-Dawley rat aortic ring contraction; type: functional; conditions: Aorta
[6] = (§1) Permeability from apical to basolateral side in human Caco-2 cells; type: ADME, cell-based; conditions: Caco-2, read-out: permeability
Cytochrome P450 2D6 [7] = target: T2, Cytochrome P450 2D6 (Homo sapiens, UniProt P10635); test: Inhibition of human CYP2D6 by LCMS/MS assay; type: ADME
T2 sequence (P10635 whole entry): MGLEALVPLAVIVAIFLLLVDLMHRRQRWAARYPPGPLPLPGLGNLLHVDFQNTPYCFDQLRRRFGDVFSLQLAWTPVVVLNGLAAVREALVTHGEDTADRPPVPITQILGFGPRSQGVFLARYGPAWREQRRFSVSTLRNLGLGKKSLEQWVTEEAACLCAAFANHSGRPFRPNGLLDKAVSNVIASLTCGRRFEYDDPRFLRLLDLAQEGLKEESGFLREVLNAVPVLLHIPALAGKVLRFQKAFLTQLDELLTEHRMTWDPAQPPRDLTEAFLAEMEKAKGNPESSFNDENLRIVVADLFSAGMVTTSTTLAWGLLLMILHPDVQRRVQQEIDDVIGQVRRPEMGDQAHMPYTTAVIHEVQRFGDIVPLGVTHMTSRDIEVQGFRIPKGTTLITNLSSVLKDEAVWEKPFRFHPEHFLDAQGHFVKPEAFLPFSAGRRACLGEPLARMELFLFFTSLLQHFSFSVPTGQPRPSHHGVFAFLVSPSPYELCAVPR

Cytochrome P450 2C9 [8] = target: T3, Cytochrome P450 2C9 (Homo sapiens, UniProt P11712); test: Inhibition of human CYP2C9 by LCMS/MS assay; type: ADME
T3 sequence (P11712 whole entry): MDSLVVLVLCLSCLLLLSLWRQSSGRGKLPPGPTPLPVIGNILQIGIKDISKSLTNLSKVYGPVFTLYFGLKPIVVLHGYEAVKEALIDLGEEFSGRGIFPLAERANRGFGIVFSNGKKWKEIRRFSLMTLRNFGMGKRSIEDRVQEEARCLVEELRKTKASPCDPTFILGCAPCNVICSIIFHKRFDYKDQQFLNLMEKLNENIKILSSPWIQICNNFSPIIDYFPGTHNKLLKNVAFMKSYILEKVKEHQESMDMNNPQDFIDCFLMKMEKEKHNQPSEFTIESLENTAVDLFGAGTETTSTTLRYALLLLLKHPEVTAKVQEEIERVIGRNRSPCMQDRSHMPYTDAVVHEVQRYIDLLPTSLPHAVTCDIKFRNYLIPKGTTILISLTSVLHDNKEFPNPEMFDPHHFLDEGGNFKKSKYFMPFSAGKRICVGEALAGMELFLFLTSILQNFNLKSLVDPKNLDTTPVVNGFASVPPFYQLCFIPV

Cytochrome P450 3A4 [9] = target: T4, Cytochrome P450 3A4 (Homo sapiens, UniProt P08684); test: Inhibition of human CYP3A4 by LCMS/MS assay; type: ADME
T4 sequence (P08684 whole entry): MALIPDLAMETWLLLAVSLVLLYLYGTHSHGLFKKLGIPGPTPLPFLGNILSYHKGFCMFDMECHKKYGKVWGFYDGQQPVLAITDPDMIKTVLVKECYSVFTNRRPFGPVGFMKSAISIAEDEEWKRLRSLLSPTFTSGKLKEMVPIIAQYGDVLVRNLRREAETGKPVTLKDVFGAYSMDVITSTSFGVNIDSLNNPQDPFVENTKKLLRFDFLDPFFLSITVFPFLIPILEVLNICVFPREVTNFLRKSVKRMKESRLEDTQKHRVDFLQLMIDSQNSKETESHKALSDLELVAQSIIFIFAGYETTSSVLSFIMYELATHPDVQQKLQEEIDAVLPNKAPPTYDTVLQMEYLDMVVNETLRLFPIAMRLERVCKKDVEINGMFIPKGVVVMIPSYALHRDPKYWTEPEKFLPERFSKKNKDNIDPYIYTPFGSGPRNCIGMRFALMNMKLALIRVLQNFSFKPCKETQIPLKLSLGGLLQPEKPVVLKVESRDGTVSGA

[10] = target: T5, Protein kinase C epsilon type (Homo sapiens, UniProt Q02156); test: Inhibition of PKCepsilon
T5 sequence (Q02156 whole entry): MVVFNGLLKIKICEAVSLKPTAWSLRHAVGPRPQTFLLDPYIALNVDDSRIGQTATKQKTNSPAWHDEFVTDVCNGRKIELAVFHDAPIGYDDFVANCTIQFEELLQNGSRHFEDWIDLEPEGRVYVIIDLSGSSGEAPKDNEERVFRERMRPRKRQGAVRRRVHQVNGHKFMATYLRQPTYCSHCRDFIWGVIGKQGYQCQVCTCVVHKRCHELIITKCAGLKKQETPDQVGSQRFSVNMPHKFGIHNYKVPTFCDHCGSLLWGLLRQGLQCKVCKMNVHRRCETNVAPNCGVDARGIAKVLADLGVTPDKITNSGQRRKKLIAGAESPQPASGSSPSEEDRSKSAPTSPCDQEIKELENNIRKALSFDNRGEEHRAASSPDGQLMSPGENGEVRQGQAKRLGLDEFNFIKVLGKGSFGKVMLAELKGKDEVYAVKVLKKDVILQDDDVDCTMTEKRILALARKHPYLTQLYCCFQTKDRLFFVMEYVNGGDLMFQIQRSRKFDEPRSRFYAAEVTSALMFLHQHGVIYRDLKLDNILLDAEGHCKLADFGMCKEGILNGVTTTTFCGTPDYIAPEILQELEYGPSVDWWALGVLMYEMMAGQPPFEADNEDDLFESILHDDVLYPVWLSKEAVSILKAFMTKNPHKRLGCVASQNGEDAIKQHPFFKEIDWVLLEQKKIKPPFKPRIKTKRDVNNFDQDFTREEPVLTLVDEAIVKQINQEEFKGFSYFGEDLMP

[11] = Permeability from basolateral to apical side in human Caco-2 cells; type: ADME, cell-based; conditions: read-out: permeability
in vitro = conditions: human, Caco-2
Description: Ratio of permeability from basolateral to apical side over apical to basolateral side in human Caco-2 cells

[12] = target: T6, Rho-associated protein kinase 2 (Homo sapiens, UniProt O75116)
T6 sequence (O75116 whole entry): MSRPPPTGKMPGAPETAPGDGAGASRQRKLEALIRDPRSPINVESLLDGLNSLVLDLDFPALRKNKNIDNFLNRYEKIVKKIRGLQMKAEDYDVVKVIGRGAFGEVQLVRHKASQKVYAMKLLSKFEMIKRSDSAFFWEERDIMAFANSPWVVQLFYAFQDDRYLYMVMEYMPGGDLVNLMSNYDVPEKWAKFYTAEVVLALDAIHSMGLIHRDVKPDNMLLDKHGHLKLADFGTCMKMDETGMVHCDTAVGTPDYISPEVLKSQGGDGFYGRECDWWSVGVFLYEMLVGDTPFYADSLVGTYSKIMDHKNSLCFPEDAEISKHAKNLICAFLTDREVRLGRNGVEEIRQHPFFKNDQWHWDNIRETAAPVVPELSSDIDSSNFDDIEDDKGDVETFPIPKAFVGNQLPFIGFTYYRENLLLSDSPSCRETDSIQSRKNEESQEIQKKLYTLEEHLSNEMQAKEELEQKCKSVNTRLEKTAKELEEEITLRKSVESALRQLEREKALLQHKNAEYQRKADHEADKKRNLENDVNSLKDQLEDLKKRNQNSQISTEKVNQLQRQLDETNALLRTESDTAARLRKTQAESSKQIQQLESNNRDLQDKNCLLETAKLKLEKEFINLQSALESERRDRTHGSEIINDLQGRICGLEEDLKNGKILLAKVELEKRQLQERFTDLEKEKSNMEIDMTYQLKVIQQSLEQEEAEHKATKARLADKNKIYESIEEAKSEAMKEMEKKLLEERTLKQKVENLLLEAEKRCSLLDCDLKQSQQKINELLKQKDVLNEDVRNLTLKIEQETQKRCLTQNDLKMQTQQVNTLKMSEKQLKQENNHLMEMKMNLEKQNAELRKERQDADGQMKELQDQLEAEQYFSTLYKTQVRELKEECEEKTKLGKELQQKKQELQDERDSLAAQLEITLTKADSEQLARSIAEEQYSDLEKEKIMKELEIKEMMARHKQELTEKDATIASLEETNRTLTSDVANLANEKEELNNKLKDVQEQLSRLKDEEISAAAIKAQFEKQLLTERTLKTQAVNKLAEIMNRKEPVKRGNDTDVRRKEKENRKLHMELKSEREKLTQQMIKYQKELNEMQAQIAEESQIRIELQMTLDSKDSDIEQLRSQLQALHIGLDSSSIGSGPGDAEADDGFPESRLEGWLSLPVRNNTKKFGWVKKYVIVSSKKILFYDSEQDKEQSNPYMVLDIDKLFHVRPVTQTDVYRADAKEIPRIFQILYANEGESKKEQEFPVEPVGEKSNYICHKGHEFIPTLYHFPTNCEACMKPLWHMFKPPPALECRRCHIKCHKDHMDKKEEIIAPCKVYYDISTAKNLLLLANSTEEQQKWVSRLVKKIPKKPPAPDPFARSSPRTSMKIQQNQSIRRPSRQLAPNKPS
Description: Inhibition of human ROCK2 by homogenous luciferase assay

[13] = target: Rho-associated protein kinase 1 (Homo sapiens, UniProt Q13464); test: Inhibition of human ROCK1 by homogenous luciferase assay
Cytochrome P450 1A2 [14] = target: T1, Cytochrome P450 1A2; test: Inhibition of human CYP1A2 by fluorescence assay; type: ADME
Cytochrome P450 2C19 = Cytochrome P450 2C19 (Homo sapiens, UniProt P33261); test: Inhibition of human CYP2C19 by fluorescence assay; type: ADME
Cytochrome P450 2C19, sequence (P33261 whole entry): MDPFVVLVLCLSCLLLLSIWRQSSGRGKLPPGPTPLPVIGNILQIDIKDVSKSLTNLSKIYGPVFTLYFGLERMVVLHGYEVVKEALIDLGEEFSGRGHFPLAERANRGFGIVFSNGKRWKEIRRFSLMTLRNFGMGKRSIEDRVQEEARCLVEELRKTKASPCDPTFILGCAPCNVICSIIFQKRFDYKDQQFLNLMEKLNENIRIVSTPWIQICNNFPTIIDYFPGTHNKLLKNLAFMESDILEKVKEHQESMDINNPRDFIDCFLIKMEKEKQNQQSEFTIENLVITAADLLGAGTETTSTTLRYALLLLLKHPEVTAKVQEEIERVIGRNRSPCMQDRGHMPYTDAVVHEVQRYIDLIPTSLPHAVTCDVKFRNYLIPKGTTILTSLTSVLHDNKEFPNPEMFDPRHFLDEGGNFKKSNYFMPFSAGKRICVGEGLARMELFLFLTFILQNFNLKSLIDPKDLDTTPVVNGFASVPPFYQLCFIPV

[15] = Solubility at pH 4.5; type: physicochemical; conditions: buffer
[16] = Metabolic stability in human liver microsomes assessed as half life; type: ADME, Microsome
Cytochrome P450 2D6 [17] = target: T2, Cytochrome P450 2D6; test: Inhibition of human CYP2D6 by fluorescence assay; type: ADME
Cytochrome P450 3A4 [18] = target: T4, Cytochrome P450 3A4; test: Inhibition of human CYP3A4 using BFC substrate by fluorescence assay; type: ADME
Cytochrome P450 3A4 [19] = target: T4, Cytochrome P450 3A4; test: Inhibition of human CYP3A4 using BQ substrate by fluorescence assay; type: ADME
Cytochrome P450 2C9 [20] = target: T3, Cytochrome P450 2C9; test: Inhibition of human CYP2C9 by fluorescence assay; type: ADME
[21] = Bioavailability in rat; type: ADME, organism-based; conditions: in vivo
[22] = target: T6, Rho-associated protein kinase 2; test: Inhibition of human ROCK2 by IMAP assay
Caco-2 = test: as §1; type: ADME, cell-based; conditions: caco-2, BLD = below limit of detection

Papp [1]	solubility [2]	IC50 [3]	IC50 [5]	IC50 (Rattus norvegicus)	Papp A→B [6]	IC50 [10]	Papp B→A [11]	IC50 [12]	IC50 (Cytochrome P450 1A2 [14])	IC50 (Cytochrome P450 2C19)	half-life [16]	IC50 (Cytochrome P450 2D6 [17])	IC50 (Cytochrome P450 3A4 [18])	IC50 (Cytochrome P450 3A4 [19])	IC50 (Cytochrome P450 2C9 [20])	SMILES	further results
24 ×10⁻⁶ cm/s	> 96 µg/mL	> 5 µM	> 5 µM	1.6 µM	7.7 ×10⁻⁶ cm/s	> 5 µM	45.3 ×10⁻⁶ cm/s									COc1ccc(C(=O)NCc2cccc(C(=O)Nc3ccc(CN(C)C)cc3)c2)cc1Cl	IC50 (Cytochrome P450 1A2 [4]): > 30 µM; IC50 (Cytochrome P450 2D6 [7]): > 30 µM; IC50 (Cytochrome P450 2C9 [8]): > 30 µM; IC50 (Cytochrome P450 3A4 [9]): > 30 µM
	63 µg/mL (≈ 150 µM)			1.9 µM	0.5 ×10⁻⁶ cm/s		29.1 ×10⁻⁶ cm/s	2.3 µM	> 30 µM	> 30 µM	10 min	> 30 µM	4 µM	21 µM	16 µM	COc1ccc(C(=O)NCc2cccc(C(=O)NCCc3ccncc3)c2)cc1OC	efflux ratio (in vitro): 58; IC50 [13]: 4.3 µM; solubility [15]: > 100 µg/mL
10 ×10⁻⁶ cm/s	> 100 µg/mL	> 5 µM	> 5 µM	6 µM		> 5 µM	14.6 ×10⁻⁶ cm/s	0.069 µM	> 30 µM	> 30 µM	66 min	> 30 µM	8.5 µM	> 30 µM	> 30 µM	COc1ccc(C(=O)NCc2cccc(C(=O)Nc3ccc(CN(C)C)cc3)c2)cc1OC	bioavailability [21]: 1.8%; IC50 [22]: 0.23 µM; permeability (Caco-2): BLD
